# In ChEMBL document CHEMBL4364264, “Tetrazole hybrids with potential anticancer activity” (Eur J Med Chem, 2019):
# Columns and labels:
# MCF7 [1] = experiment: Cytotoxicity against human MCF7 cells; format: functional, cell-based
# SK-BR-3 = experiment: Cytotoxicity against human SKBR3 cells; format: functional, cell-based
# Caco-2 = experiment: Cytotoxicity against human Caco2 cells; format: functional, cell-based
# HeLa [2] = experiment: Cytotoxicity against human HeLa cells; format: functional, cell-based
# MDA-MB-231 [3] = experiment: Cytotoxicity against human MDA-MB-231 cells; format: functional
# SiHa = experiment: Cytotoxicity against human SiHa cells; format: functional
# PANC-1 = experiment: Cytotoxicity against human PANC1 cells; format: functional
# DU-145 = experiment: Growth inhibition of human DU145 cells by microtiter plate assay; format: functional
# MDA-MB-231 [4] = experiment: Growth inhibition of human MDA-MB-231 cells by microtiter plate assay; format: functional
# MCF7 [5] = experiment: Growth inhibition of human MCF7 cells by microtiter plate assay; format: functional
# HCT-116 = experiment: Cytotoxicity against human HCT116 cells; format: functional, cell-based
# PC-3 [6] = experiment: Cytotoxicity against human PC3 cells; format: functional, cell-based
# HT-29 = experiment: cells; conditions: Homo sapiens, HT-29, 48 h
# Description: Antiproliferative activity against human HT-29 cells after 48 hrs by MTT assay
# PC-3 [7] = experiment: cells; conditions: Homo sapiens, PC-3, 48 h
# MCF7 [8] = experiment: Growth inhibition of human MCF7 cells; format: functional
# HepG2 = experiment: Growth inhibition of human HepG2 cells; format: functional
# HeLa [9] = experiment: Growth inhibition of human HeLa cells; format: functional
compound,measurement,setting,value
COc1ccccc1C1C(c2nnn[nH]2)=C(N)Oc2ccc3ccccc3c21 (centres undefined),IC50,MCF7 [1],15 to 87 µM
same,IC50,SK-BR-3,15 to 87 µM
same,IC50,Caco-2,15 to 87 µM
same,IC50,HeLa [2],15 to 87 µM
CCn1cc(C(=O)O)c(=O)c2cnc(N3CCN(C(=O)CCSc4nnnn4-c4ccc(C(F)(F)F)cc4)CC3)nc21,GI50,MDA-MB-231 [3],0.066 to 1.3 µM
same,GI50,SiHa,0.066 to 1.3 µM
same,GI50,PANC-1,0.066 to 1.3 µM
NC1=C(c2nnn[nH]2)C(c2ccc(Br)cc2)c2c(ccc3ccccc23)O1 (centres undefined),IC50,MCF7 [1],15 to 87 µM
same,IC50,SK-BR-3,15 to 87 µM
same,IC50,Caco-2,15 to 87 µM
same,IC50,HeLa [2],15 to 87 µM
CCc1cc2c(cc1OS(N)(=O)=O)CC[C@@H]1[C@@H]2CC[C@]2(C)[C@@H](Cc3nnn(C)n3)CC[C@@H]12,GI50,DU-145,0.8 to 47 µM
same,GI50,MDA-MB-231 [4],0.8 to 47 µM
same,GI50,MCF7 [5],0.8 to 47 µM
O=C(O)c1cn(C2CC2)c2cc(N3CCN(C(=O)CCSc4nnnn4-c4ccccc4)CC3)c(F)cc2c1=O,GI50,MDA-MB-231 [3],0.085 to 1.15 µM
same,GI50,SiHa,0.085 to 1.15 µM
same,GI50,PANC-1,0.085 to 1.15 µM
COc1ccc(C(=O)/C=C/c2ccc(Oc3nnnn3-c3ccccc3)c(OC)c2)cc1OC,IC50,HCT-116,1.6 µg/mL
same,IC50,PC-3 [6],2.2 µg/mL
CCc1cc2c(cc1O)CC[C@@H]1[C@@H]2CC[C@]2(C)[C@@H](Cc3nnn[nH]3)CC[C@@H]12,GI50,DU-145,0.34 to 100 µM
same,GI50,MDA-MB-231 [4],0.34 to 100 µM
same,GI50,MCF7 [5],0.34 to 100 µM
O=C(O)c1cn(C2CC2)c2cc(N3CCN(C(=O)CCSc4nnnn4-c4ccc(C(F)(F)F)cc4)CC3)c(F)cc2c1=O,GI50,MDA-MB-231 [3],0.066 to 1.3 µM
same,GI50,SiHa,0.066 to 1.3 µM
same,GI50,PANC-1,0.066 to 1.3 µM
NC1=C(c2nnn[nH]2)C(c2ccc(Cl)cc2)c2c(ccc3ccccc23)O1 (centres undefined),IC50,MCF7 [1],15 to 87 µM
same,IC50,SK-BR-3,15 to 87 µM
same,IC50,Caco-2,15 to 87 µM
same,IC50,HeLa [2],15 to 87 µM
O=C(O)c1cn(C2CC2)c2cc(N3CCN(C(=O)CCSc4nnnn4Cc4ccccc4)CC3)c(F)cc2c1=O,GI50,MDA-MB-231 [3],0.085 to 1.15 µM
same,GI50,SiHa,0.085 to 1.15 µM
same,GI50,PANC-1,0.085 to 1.15 µM
CCn1cc(C(=O)O)c(=O)c2cnc(N3CCN(C(=O)CCSc4nnnn4-c4ccc(Br)cc4)CC3)nc21,GI50,MDA-MB-231 [3],0.22 µM
same,GI50,SiHa,0.08 µM
same,GI50,PANC-1,0.07 µM
COc1ccc(C2C(c3nnn[nH]3)=C(N)Oc3ccc4ccccc4c32)cc1 (centres undefined),IC50,MCF7 [1],15 to 87 µM
same,IC50,SK-BR-3,15 to 87 µM
same,IC50,Caco-2,15 to 87 µM
same,IC50,HeLa [2],15 to 87 µM
O=c1[nH]cc(F)c(=O)[nH]1 [FLUOROURACIL],IC50,MCF7 [1],9.74 to 21.4 µg/mL
same,IC50,HCT-116,17.3 µg/mL
same,IC50,SK-BR-3,10 to 17 µM
same,IC50,PC-3 [6],21.4 µg/mL
same,IC50,Caco-2,10 to 17 µM
same,IC50,HeLa [2],10 to 17 µM
O=C(O)Cn1nnc(-c2cn(-c3ccccc3)nc2-c2ccccc2Cl)n1,IC50,HT-29,6.43 to 18.2 µM
same,IC50,PC-3 [7],6.43 to 18.2 µM
NC1=C(c2nnn[nH]2)C(c2ccccc2Cl)c2c(ccc3ccccc23)O1 (centres undefined),IC50,MCF7 [1],15 to 87 µM
same,IC50,SK-BR-3,15 to 87 µM
same,IC50,Caco-2,15 to 87 µM
same,IC50,HeLa [2],15 to 87 µM
CCn1cc(C(=O)O)c(=O)c2cnc(N3CCN(C(=O)CCSc4nnnn4-c4ccc(F)c(F)c4F)CC3)nc21,GI50,MDA-MB-231 [3],0.066 to 1.3 µM
same,GI50,SiHa,0.066 to 1.3 µM
same,GI50,PANC-1,0.066 to 1.3 µM
CN(C)C(=O)NC(c1ccc(O)cc1)n1cnnn1 (centres undefined),GI50,MCF7 [8],8.2 to 41 µM
same,GI50,HepG2,8.2 to 41 µM
same,GI50,HeLa [9],8.2 to 41 µM
COc1ccccc1-c1nn(-c2ccccc2)cc1-c1nnn(CC(=O)O)n1,IC50,HT-29,7.23 to 48.3 µM
same,IC50,PC-3 [7],7.23 to 48.3 µM
Cc1ccc(-c2nn(-c3ccccc3)cc2-c2nnn(CC(=O)O)n2)cc1,IC50,HT-29,7.23 to 48.3 µM
same,IC50,PC-3 [7],7.23 to 48.3 µM
CCc1cc2c(cc1O)CC[C@@H]1[C@@H]2CC[C@]2(C)[C@@H](Cc3nnnn3C)CC[C@@H]12,GI50,DU-145,0.34 to 100 µM
same,GI50,MDA-MB-231 [4],0.34 to 100 µM
same,GI50,MCF7 [5],0.34 to 100 µM
NC(=S)NNC(c1ccc(Cl)cc1)n1cnnn1 (centres undefined),GI50,MCF7 [8],5.2 to 29.8 µM
same,GI50,HepG2,5.2 to 29.8 µM
same,GI50,HeLa [9],5.2 to 29.8 µM
NC(=S)NNC(c1ccc(O)cc1)n1cnnn1 (centres undefined),GI50,MCF7 [8],5.2 to 29.8 µM
same,GI50,HepG2,5.2 to 29.8 µM
same,GI50,HeLa [9],5.2 to 29.8 µM
CCc1cc2c(cc1O)CC[C@@H]1[C@@H]2CC[C@]2(C)[C@@H](Cc3nnn(C)n3)CC[C@@H]12,GI50,DU-145,0.8 to 47 µM
same,GI50,MDA-MB-231 [4],0.8 to 47 µM
same,GI50,MCF7 [5],0.8 to 47 µM
NC1=C(c2nnn[nH]2)C(c2ccccc2F)c2c(ccc3ccccc23)O1 (centres undefined),IC50,MCF7 [1],15 to 87 µM
same,IC50,SK-BR-3,15 to 87 µM
same,IC50,Caco-2,15 to 87 µM
same,IC50,HeLa [2],15 to 87 µM
CN(C)C(=O)NC(c1ccc(Cl)cc1)n1cnnn1 (centres undefined),GI50,MCF7 [8],8.2 to 41 µM
same,GI50,HepG2,8.2 to 41 µM
same,GI50,HeLa [9],8.2 to 41 µM
COc1cc(/C=C/C(=O)c2ccc(Cl)cc2)ccc1Oc1nnnn1-c1ccccc1,IC50,HCT-116,2.5 to 7 µg/mL
same,IC50,PC-3 [6],2.5 to 7 µg/mL
O=C(/C=C/c1ccccc1Oc1nnnn1-c1ccccc1)c1ccccc1,IC50,HCT-116,0.6 µg/mL
same,IC50,PC-3 [6],1.6 µg/mL
